The values below come from publication PMC6659418 (Bioorganic & medicinal chemistry letters, 2017).

Usually IC50 stands for the midpoint of a concentration-inhibition curve. High values mean a need for much substance, low ones inhibition by little substance.

Series [1] in a line: predicted hepatic clearance from microsomal intrinsic clearance, rat. In kind it is in vitro ADME. Conditions: based on microsomal CLint.
Series [2] is described as follows: predicted hepatic clearance from microsomal intrinsic clearance, human. The series is classed as in vitro ADME. Conditions: based on microsomal CLint.
Series [3] is described as follows: metabolite identification in rat hepatic microsomes. In kind it is in vitro ADME.
The nature of series [4]: metabolite identification in human hepatic microsomes. The series is classed as in vitro ADME.
A short description of another series: plasma protein binding. In kind it is in vitro ADME.
Another series deals with T1, hM4 (Homo sapiens, UniProt P08173).
T1 sequence (P08173 1-479): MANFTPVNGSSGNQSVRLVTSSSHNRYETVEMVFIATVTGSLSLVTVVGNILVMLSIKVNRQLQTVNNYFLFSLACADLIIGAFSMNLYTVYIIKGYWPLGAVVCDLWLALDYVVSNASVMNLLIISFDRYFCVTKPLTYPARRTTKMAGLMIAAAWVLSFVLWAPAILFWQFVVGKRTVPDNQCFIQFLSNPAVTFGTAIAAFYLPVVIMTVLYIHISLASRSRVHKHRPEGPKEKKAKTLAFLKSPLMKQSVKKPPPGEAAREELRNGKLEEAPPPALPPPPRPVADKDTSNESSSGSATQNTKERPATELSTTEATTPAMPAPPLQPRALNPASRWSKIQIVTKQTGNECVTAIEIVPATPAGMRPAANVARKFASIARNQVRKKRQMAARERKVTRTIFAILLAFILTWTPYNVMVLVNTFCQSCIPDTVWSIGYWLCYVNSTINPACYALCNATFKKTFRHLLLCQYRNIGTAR
The series can be described thus: calcium mobilization assay, hM4/Gqi5 CHO cells, ACh EC80. Conditions: for hM4 % ACh Min ±SEM: presence of ACh EC80. The series is classed as cell-based. For orientation: Calcium assays in cells follow changes in intracellular calcium, usually with a dye or a luminescent sensor.

Another series concerns the target hM3 (Homo sapiens, UniProt P20309). Nature of the series: calcium mobilization assay, hM3 CHO cells, ACh EC80. The series is classed as cell-based.
The next series concerns the target T2, rM4 (Rattus norvegicus, UniProt P08485).
T2 sequence (P08485 1-478): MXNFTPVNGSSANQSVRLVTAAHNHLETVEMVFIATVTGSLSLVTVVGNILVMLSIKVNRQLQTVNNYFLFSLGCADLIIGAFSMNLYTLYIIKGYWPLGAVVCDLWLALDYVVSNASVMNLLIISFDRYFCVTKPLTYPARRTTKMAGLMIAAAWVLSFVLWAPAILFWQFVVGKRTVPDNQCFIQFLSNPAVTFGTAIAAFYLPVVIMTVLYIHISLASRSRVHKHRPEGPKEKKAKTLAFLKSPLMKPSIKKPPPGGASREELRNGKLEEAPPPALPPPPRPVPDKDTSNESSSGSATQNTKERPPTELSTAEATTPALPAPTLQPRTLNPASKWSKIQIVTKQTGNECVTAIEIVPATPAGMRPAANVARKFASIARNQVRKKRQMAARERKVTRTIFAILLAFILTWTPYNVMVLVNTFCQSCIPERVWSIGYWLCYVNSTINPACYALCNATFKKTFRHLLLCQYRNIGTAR
Nature of the series: activity at rat mAChRs, rM4. In kind it is cell-based.

For the next series, the target named is T3, hM1 (Homo sapiens, UniProt P11229).
T3 sequence (P11229 1-460): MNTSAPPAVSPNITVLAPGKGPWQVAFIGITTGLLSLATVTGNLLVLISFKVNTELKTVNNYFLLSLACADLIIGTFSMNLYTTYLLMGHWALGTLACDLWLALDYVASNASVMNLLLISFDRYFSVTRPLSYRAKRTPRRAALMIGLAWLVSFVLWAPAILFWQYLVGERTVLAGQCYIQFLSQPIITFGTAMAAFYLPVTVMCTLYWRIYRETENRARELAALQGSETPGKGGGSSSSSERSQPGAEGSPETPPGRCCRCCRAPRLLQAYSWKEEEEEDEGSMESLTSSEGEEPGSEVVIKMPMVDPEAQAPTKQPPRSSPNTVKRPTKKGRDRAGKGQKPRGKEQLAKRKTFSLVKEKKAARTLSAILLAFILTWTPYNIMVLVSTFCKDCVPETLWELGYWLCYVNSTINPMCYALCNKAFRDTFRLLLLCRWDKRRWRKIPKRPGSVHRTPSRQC
Nature of the series: calcium mobilization assay, hM1 CHO cells, ACh EC80. The series is classed as cell-based.

The next series deals with T4, hM5 (Homo sapiens, UniProt P08912).
T4 sequence (P08912 1-532): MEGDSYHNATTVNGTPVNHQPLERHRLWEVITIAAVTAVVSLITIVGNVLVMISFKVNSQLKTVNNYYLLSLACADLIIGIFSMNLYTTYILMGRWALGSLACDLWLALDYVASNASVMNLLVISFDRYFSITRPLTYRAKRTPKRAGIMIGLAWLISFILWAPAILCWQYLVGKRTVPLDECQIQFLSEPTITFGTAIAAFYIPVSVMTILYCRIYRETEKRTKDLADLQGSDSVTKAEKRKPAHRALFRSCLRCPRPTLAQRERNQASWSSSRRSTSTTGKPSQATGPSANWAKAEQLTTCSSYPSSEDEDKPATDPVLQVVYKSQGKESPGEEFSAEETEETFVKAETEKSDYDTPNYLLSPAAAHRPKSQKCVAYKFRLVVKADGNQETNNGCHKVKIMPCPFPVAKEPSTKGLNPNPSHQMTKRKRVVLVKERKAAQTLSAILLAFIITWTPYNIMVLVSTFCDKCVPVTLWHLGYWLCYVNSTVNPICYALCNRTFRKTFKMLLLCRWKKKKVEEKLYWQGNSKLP
Nature of the series: calcium mobilization assay, hM5 CHO cells, ACh EC80. In kind it is cell-based.

Another series addresses T5, hM2 (Homo sapiens, UniProt P08172).
T5 sequence (P08172 1-466): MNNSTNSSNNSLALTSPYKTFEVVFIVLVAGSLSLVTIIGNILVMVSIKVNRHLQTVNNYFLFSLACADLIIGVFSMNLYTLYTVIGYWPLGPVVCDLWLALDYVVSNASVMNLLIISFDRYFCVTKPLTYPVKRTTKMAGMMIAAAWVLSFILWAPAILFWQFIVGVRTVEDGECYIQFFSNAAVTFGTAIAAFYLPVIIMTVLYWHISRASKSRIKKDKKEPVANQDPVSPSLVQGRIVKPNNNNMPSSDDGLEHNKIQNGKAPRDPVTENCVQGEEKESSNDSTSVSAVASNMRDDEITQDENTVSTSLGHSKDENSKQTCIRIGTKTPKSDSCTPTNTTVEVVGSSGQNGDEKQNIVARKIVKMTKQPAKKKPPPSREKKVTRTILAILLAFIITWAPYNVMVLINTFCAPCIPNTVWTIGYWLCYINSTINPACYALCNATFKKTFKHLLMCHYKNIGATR
Nature of the series: calcium mobilization assay, hM2/Gqi5 CHO cells, ACh EC80. The series is classed as cell-based.

Sequence of hM3 (P20309 whole entry): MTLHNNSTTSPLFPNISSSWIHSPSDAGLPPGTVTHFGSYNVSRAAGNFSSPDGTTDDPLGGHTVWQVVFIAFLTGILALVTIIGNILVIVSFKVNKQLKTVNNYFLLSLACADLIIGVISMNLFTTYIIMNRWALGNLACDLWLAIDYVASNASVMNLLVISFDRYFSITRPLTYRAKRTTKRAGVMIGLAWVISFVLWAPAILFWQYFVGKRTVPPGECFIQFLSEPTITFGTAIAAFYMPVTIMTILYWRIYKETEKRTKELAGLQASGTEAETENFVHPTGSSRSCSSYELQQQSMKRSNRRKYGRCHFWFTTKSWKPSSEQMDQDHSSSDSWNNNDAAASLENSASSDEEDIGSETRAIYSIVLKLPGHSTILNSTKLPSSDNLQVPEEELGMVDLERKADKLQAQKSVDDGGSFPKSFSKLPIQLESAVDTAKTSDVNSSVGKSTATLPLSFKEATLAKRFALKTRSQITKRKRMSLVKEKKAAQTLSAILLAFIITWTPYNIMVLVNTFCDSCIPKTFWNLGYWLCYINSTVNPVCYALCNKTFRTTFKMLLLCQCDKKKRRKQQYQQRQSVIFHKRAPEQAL

With `C[C@H]1CCCCN1c1ccc(N2CCN(S(=O)(=O)c3ccccc3Cl)CC2)nn1` [Compound 6a], in series [1], the “predicted hepatic clearance (CLhep), rat” value is on record as above 60 mL/min/kg. In series [2], the “predicted hepatic clearance (CLhep), human” value is given as above 20 mL/min/kg. In series [3], the “parent remaining, rat microsomes” value was “very little parent remained”. Besides, the “major peak (UV and extracted ion chromatograms), rat microsomes” value in series [3] (oxidative metabolism of the piperidine moiety) is on record as “metabolite F”. Also, the “NADPH-independent metabolism, rat microsomes” value in [3] (presence and absence of NADPH) is “no NADPH-independent metabolism”. Besides, in series [4], the “number of NADPH-dependent metabolites formed, human microsomes” value was found to be 8 and the “parent remaining, human microsomes” value was “parent remained the major species”. Besides, the “NADPH-independent metabolism, human microsomes” value in series [4] (presence and absence of NADPH) is on record as “no NADPH-independent metabolism”. Besides, the “plasma protein binding” value in “plasma protein binding” is listed as “high plasma protein binding”. For the same compound, on hM4 (hM4 versus hM1, hM2, hM3, hM5), the “M4-preferring functional selectivity over other mAChRs” value is recorded as 2.7- to 16 fold.
On to `C[C@H]1COCCN1c1ccc(N2CCN(S(=O)(=O)c3ccccc3Cl)CC2)nn1` [Compound 14a], for which the “hM4 % ACh Min ±SEM” value on hM4 is listed as 56 % ACh Min.
For `C[C@H]1CCCCN1c1ccc(N2CCN(S(=O)(=O)c3ccccc3C(F)(F)F)CC2)nn1` [Compound 9e], the “hM4 activity” value on hM4 is reported as “essentially equipotent to 6a”.
On the same count and under the same terms, the value for `C[C@H]1CCCCN1c1ccc(N2CCN(S(=O)(=O)c3ccccc3)CC2)nn1` [Compound 9c] was “weak”.
Turning to `C[C@H]1CCCCN1c1ccc(N2CCN(S(=O)(=O)c3ccc4c(c3)OCO4)CC2)nn1` [Compound 9i], the “fold more potent at hM4 than 3,4-dimethoxy analog 9j” value on hM4 (9i versus 9j) is given as 10 fold.
In the case of `COc1ccccc1S(=O)(=O)N1CCN(c2ccc(N3CCCC[C@@H]3C)nn2)CC1` [Compound 9d], the “hM4 activity” value at hM4 is given as “weak”.
For `O=S(=O)(c1ccccc1Cl)N1CCN(c2ccc(N3CCCCC3)nn2)CC1` [Compound 14g], the “fold loss in hM4 inhibitory activity relative to 6a” value at hM4 is given as 5- to 6 fold.
In the case of `Cc1noc(C)c1S(=O)(=O)N1CCN(c2ccc(N3CCCC(C)(C)C3)nn2)CC1` [Compound 14n, 4-[4-[6-(3,3-dimethyl-1-piperidyl)pyridazin-3-yl]piperazin-1-yl]sulfonyl-3,5-dimethyl-isoxazole], in series [1], the “predicted hepatic clearance (CLhep), rat” value is given as 66.6 mL/min/kg. Further, on hM3, the “mode of antagonism at human M3” value is “weak, partial antagonism”. The “predicted hepatic clearance (CLhep), human” value in [2] is 20 mL/min/kg. The “rM4 % ACh Min” value at rM4 came out at 32±1 % ACh Min. Further, the IC50 at rM4 (rM4 pIC50) was 372 nM. Besides, the “mode of antagonism at human M1” value at hM1 is “potent full antagonist”. On hM5, the “mode of antagonism at human M5” value is reported as “weak, partial antagonism”. Further, the “mode of antagonism at human M2” value on hM2 is reported as “potent full antagonist”.
Take `Cc1noc(C)c1S(=O)(=O)N1CCN(c2ccc(N3CCOC[C@@H]3C)nn2)CC1` [Compound 14c]: at hM4, the “hM4 % ACh Min ±SEM” value was determined as 66 % ACh Min.
Still for that read-out and setting: as for `C[C@H]1COCCN1c1ccc(N2CCN(S(=O)(=O)c3ccc4c(c3)OCO4)CC2)nn1` [Compound 14b], the figure is 63 % ACh Min.
As to `O=C1CCCCN1c1ccc(N2CCN(S(=O)(=O)c3ccccc3Cl)CC2)nn1` [Compound 14o], the “hM4 % ACh Min ±SEM” value at hM4 was determined as 51 % ACh Min.
